Reference: patent US20240158446A1, “CYCLIC COMPOUND HAVING SELECTIVE INHIBITORY ACTION ON KRAS OVER HRAS AND NRAS” (CHUGAI SEIYAKU KABUSHIKI KAISHA, priority 2021, published 2024)
pKd: −log10 of the molar value. Where two headings read alike, the source gives them in different places. *1 amine or outer side, *2 acyl side, *3 side chain or, on linkers, in order; H or OH if unused. Where a SMILES comes first, the peptide text is derived from it. Bridges are numbered along the chain shown (N, C = ends). [ ]: non-standard residue; d: D form. The star is where a group is joined. hPhe(3-Cl-4-CF3) = N[C@@H](CCc1ccc(C(F)(F)F)c(Cl)c1)C(=O)O; NPrPhe(4-CF3) = CCCN[C@@H](Cc1ccc(C(F)(F)F)cc1)C(=O)O; X19 = CCCN([C@@H](CC1CCC(F)(F)CC1)C(=O)[*:2])[*:1]; NMeGly(cPent) = CN[C@H](C(=O)O)C1CCCC1; NMeD = CN[C@@H](CC(=O)O)C(=O)O; NMeL = CN[C@@H](CC(C)C)C(=O)O; Morpholide = C1CN(*)CCO1; NMeA = CN[C@@H](C)C(=O)O; Ac5c = NC1(C(=O)O)CCCC1; Aze = O=C(O)[C@@H]1CCN1; Ac4c = NC1(C(=O)O)CCC1; Sar = CNCC(=O)O

Columns and labels:
[1] = target: GDP-bound KRAS wild-type protein (Homo sapiens, UniProt P01116); assay: Binding to KRAS by surface plasmon resonance (SPR), Single Cycle Kinetics; details: GDP-bound KRAS wild-type protein, read-out: KRAS KD
Sequence of GDP-bound KRAS wild-type protein (P01116 whole entry): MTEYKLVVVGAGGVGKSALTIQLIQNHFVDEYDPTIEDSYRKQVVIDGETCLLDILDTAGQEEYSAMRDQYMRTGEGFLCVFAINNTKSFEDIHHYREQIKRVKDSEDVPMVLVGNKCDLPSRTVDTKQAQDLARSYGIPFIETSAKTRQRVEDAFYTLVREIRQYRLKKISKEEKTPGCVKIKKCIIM

[2] = target: GDP-bound NRAS wild-type protein (Homo sapiens, UniProt P01111); assay: Binding to NRAS by surface plasmon resonance (SPR), Single Cycle Kinetics; details: for NRAS/KRAS (ratio of KD value for NRAS to KD value for KRAS) / NRAS/KRAS (ratio of KD value with respect to NRAS to KD value with respect to KRAS): SPR, GDP-bound NRAS wild-type protein vs GDP-bound KRAS wild-type protein
Sequence of GDP-bound NRAS wild-type protein (P01111 whole entry): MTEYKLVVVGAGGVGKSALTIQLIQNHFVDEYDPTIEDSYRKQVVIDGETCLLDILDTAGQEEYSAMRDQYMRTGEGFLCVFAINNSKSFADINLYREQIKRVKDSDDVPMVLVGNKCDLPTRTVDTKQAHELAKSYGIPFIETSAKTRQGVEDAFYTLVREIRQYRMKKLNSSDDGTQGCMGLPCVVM

[3] = target: GDP-bound HRAS wild-type protein (Homo sapiens, UniProt P01112); assay: Binding to HRAS by surface plasmon resonance (SPR), Single Cycle Kinetics; details: for HRAS/KRAS (ratio of KD value for HRAS to KD value for KRAS) / HRAS/KRAS (ratio of KD value with respect to HRAS to KD value with respect to KRAS): SPR, GDP-bound HRAS wild-type protein vs GDP-bound KRAS wild-type protein
Sequence of GDP-bound HRAS wild-type protein (P01112 whole entry): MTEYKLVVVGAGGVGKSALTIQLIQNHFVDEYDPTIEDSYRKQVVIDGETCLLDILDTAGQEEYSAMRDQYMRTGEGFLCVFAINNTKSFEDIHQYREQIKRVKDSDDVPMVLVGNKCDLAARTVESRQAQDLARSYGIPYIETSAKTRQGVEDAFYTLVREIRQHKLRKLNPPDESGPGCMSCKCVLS

[4] = SPR, Single Cycle Kinetics, 1:1 binding model
[5] = SPR Single Cycle Kinetics, 1:1 binding model

Row | Structure (SMILES) | pKd ([1]; SPR, Single Cycle Kinetics) | pKd [1, 5] | NRAS/KRAS (ratio of KD value for NRAS to KD value for KRAS) [2] | HRAS/KRAS (ratio of KD value for HRAS to KD value for KRAS) [3] | also measured
1 | CCO[C@@H]1C[C@H]2C(=O)NC3(CCC3)C(=O)N(C)[C@@H](C3CCCC3)C(=O)N(C)[C@H](C(=O)N(C)C)CC(=O)N(C)[C@@H](CC)C(=O)N[C@@H]([C@@H](C)CC)C(=O)N(C)CC(=O)N(C)[C@H]3C/C=C\CCN(C3=O)[C@@H](Cc3ccc(C(F)(F)F)cc3)C(=O)N(C)CC(=O)N[C@@H](CCc3ccc(C(F)(F)F)c(Cl)c3)C(=O)N2C1 [PP0978, (2S,8S,12R,14S,20S,23S,27S,30S,36S,38Z)-8-[2-[3-chloro-4-(trifluoromethyl)phenyl]ethyl]-20-cyclopentyl-12-ethoxy-27-ethyl-N,N,4,19,22,26,32,35-octamethyl-30-[(1S)-1-methylpropyl]-3,6,9,15,18,21,25,28,31,34,42-undecaoxo-2-[[4-(trifluoromethyl)phenyl]methyl]spiro[1,4,7,10,16,19,22,26,29,32,35-undecazatricyclo[34.5.1.0^10,14]dotetracont-38-ene-17,1′-cyclobutane]-23-carboxamide] | 10.06 | – | A (a compound having 10 or more and less than 20 is denoted as A) | B (a compound having 3 or more and less than 10 is denoted as B) | –
2 | CCO[C@@H]1C[C@H]2C(=O)NC3(CCC3)C(=O)N(C)[C@@H](C(CC)CC)C(=O)N(C)[C@H](C)CC(=O)N(C)[C@@H](CC3CC3)C(=O)N[C@@H]([C@@H](C)CC)C(=O)N(C)CC(=O)N(C)[C@H]3C/C=C\CCN(C3=O)[C@@H](Cc3ccc(F)cc3)C(=O)N(C)CC(=O)N[C@@H](CCc3cc(F)c(C(F)(F)F)c(F)c3)C(=O)N2C1 [PP1521] | – | – | – | – | pKd [1, 4]: 8.59; NRAS/KRAS (ratio of KD value for NRAS to KD value for KRAS) ([2]; KD ratio class): A (a compound having 10 or more and less than 20 is denoted as A); HRAS/KRAS (ratio of KD value for HRAS to KD value for KRAS) ([3]; KD ratio class): B (a compound having 3 or more and less than 10 is denoted as B)
3 | CC[C@H](C)[C@@H]1NC(=O)[C@H](CC2CC2)N(C)C(=O)C[C@@H](C(=O)N(C)CC)N(C)C(=O)[C@H](C2CCCC2)N(C)C(=O)C2(CCC2)NC(=O)[C@@H]2C[C@H](C)CN2C(=O)[C@H](CCc2cc(F)c(C(F)(F)F)c(F)c2)NC(=O)CN(C)C(=O)[C@H](Cc2ccc(C(F)(F)F)cc2)N2CC/C=C\C[C@@H](C2=O)N(C)C(=O)CN(C)C1=O [PP1537, (2S,8S,12S,14S,20S,23S,27S,30S,36S,38Z)-20-cyclopentyl-27-(cyclopropylmethyl)-8-[2-[3,5-difluoro-4-(trifluoromethyl)phenyl]ethyl]-N-ethyl-N,4,12,19,22,26,32,35-octamethyl-30-[(1S)-1-methylpropyl]-3,6,9,15,18,21,25,28,31,34,42-undecaoxo-2-[[4-(trifluoromethyl)phenyl]methyl]spiro[1,4,7,10,16,19,22,26,29,32,35-undecazatricyclo[34.5.1.0^10,14]dotetracont-38-ene-17,1′-cyclobutane]-23-carboxamide] | – | – | – | – | pKd [1, 4]: 10.17; NRAS/KRAS (ratio of KD value for NRAS to KD value for KRAS) ([2]; KD ratio class): AA (a compound having 20 or more is denoted as AA); HRAS/KRAS (ratio of KD value for HRAS to KD value for KRAS) ([3]; KD ratio class): A (a compound having 10 or more and less than 20 is denoted as A)
4 | CCCN1C(=O)[C@@H]2CCN2C(=O)[C@H](C)N(C)C(=O)[C@H]([C@@H](C)CC)NC(=O)[C@H](CC(C)C)N(C)C(=O)C[C@@H](C(=O)N2CCOCC2)N(C)C(=O)[C@H](C2CCCC2)N(C)C(=O)C2(CCCC2)NC(=O)[C@@H]2CCCN2C(=O)[C@H](CCc2ccc(C(F)(F)F)c(Cl)c2)NC(=O)CN(C)C(=O)[C@@H]1CC1CCC(F)(F)CC1 [PP0527] ([NMeL]I[NMeA][Aze][X19][Sar][hPhe(3-Cl-4-CF3)]P[Ac5c][NMeGly(cPent)][NMeD]-Morpholide; lactam N-11) | – | 9.68 | – | – | NRAS/KRAS (ratio of KD value with respect to NRAS to KD value with respect to KRAS) [2]: C (A compound having a KD ratio of 0.1 or more and less than 3 is denoted as C); HRAS/KRAS (ratio of KD value with respect to HRAS to KD value with respect to KRAS) [3]: C (A compound having a KD ratio of 0.1 or more and less than 3 is denoted as C)
5 | CCO[C@@H]1C[C@H]2C(=O)NC3(CCC3)C(=O)N(C)[C@@H](C3CCCC3)C(=O)N(C)[C@H](C(=O)N3CCOCC3)CC(=O)N(C)[C@@H](CC(F)F)C(=O)N[C@@H]([C@@H](C)CC)C(=O)N(C)CC(=O)N(C)[C@H]3CCCCCN(C3=O)[C@@H](Cc3ccc(C(F)(F)F)cc3)C(=O)N(C)CC(=O)N[C@@H](CCc3cc(F)c(C(F)(F)F)c(F)c3)C(=O)N2C1 [PP0854] | 9.42 | – | B (a compound having 3 or more and less than 10 is denoted as B) | B (a compound having 3 or more and less than 10 is denoted as B) | –
6 | CCO[C@@H]1C[C@H]2C(=O)NC3(CC(C)(C)C3)C(=O)N(C)[C@@H](C3CCCC3)C(=O)N(C)[C@H](C(=O)N3CCCCC3)CC(=O)N(C)[C@H]3CCCCCc4ccc(cc4)C[C@@H](C(=O)N(C)CC(=O)N[C@@H](CCc4ccc(C(F)(F)F)c(OC)c4)C(=O)N2C1)N1CC/C=C\C[C@@H](C1=O)N(C)C(=O)CN(C)C(=O)[C@H]([C@@H](C)CC)NC3=O [PP3036, (1S,7S,11R,13S,19S,22S,26S,29S,35S,37Z)-19-cyclopentyl-11-ethoxy-7-[2-[3-methoxy-4-(trifluoromethyl)phenyl]ethyl]-3,3′,3′,18,21,25,31,34-octamethyl-29-[(1S)-1-methylpropyl]-22-(piperidine-1-carbonyl)spiro[3,6,9,15,18,21,25,28,31,34,41-undecazapentacyclo[24.15.10.2^43,46.1^35,41.0^9,13]tetrapentaconta-37,43(53),44,46(52)-tetraene-16,1′-cyclobutane]-2,5,8,14,17,20,24,27,30,33,54-undecone] | 9.77 | – | A (a compound having 10 or more and less than 20 is denoted as A) | B (a compound having 3 or more and less than 10 is denoted as B) | –
7 | CCCN1C(=O)[C@H](C2CCCC2)N(C)C(=O)C2(CCC2)NC(=O)[C@@H]2C[C@@H](OCC)CN2C(=O)[C@H](CCc2cc(F)c(C(F)(F)F)c(F)c2)NC(=O)CN(C)C(=O)[C@H](Cc2ccc(C(F)(F)F)cc2)N2CCCCC[C@@H](C2=O)N(C)C(=O)CN(C)C(=O)[C@H]([C@@H](C)CC)NC(=O)[C@H](CC(C)C)N(C)C(=O)C[C@H]1C(=O)N1CCOCC1 [PP0639] | – | 8.07 | – | – | NRAS/KRAS (ratio of KD value with respect to NRAS to KD value with respect to KRAS) [2]: B (a compound having 3 or more and less than 10 is denoted as B); HRAS/KRAS (ratio of KD value with respect to HRAS to KD value with respect to KRAS) [3]: B (a compound having 3 or more and less than 10 is denoted as B)
8 | CCCN1C(=O)[C@@H]2CCN2C(=O)CN(C)C(=O)[C@H]([C@@H](C)CC)NC(=O)[C@H](CC(C)C)N(C)C(=O)C[C@@H](C(=O)N(C)C)NC(=O)[C@H](C2CCCC2)N(C)C(=O)C2(CCC2)NC(=O)[C@@H]2CCCN2C(=O)[C@H](CCc2ccc(C(F)(F)F)c(Cl)c2)NC(=O)CN(C)C(=O)[C@@H]1Cc1ccc(C(F)(F)F)cc1 [PP0386] ([NMeL]I[Sar][Aze][NPrPhe(4-CF3)][Sar][hPhe(3-Cl-4-CF3)]P[Ac4c][NMeGly(cPent)]D-NMe2; lactam N-11) | – | 9.16 | C (A compound having a KD ratio of 0.1 or more and less than 3 is denoted as C) | B (a compound having 3 or more and less than 10 is denoted as B) | –
9 | CCO[C@@H]1C[C@H]2C(=O)NC3(CCC3)C(=O)N(C)[C@@H](C3CCCC3)C(=O)N(C)[C@H](C(=O)N(C)CCOC)CC(=O)N(C)[C@@H](CC3CC3)C(=O)N[C@@H]([C@@H](C)CC)C(=O)N(C)CC(=O)N(C)[C@H]3C/C=C\CCN(C3=O)[C@@H](Cc3ccc(C(F)(F)F)cc3)C(=O)N(C)CC(=O)N[C@@H](CCc3cc(F)c(C(F)(F)F)c(F)c3)C(=O)N2C1 [PP1318] | – | – | – | – | pKd [1, 4]: 10.04; NRAS/KRAS (ratio of KD value for NRAS to KD value for KRAS) ([2]; KD ratio class): A (a compound having 10 or more and less than 20 is denoted as A); HRAS/KRAS (ratio of KD value for HRAS to KD value for KRAS) ([3]; KD ratio class): A (a compound having 10 or more and less than 20 is denoted as A)

Continued, in another order:

Row | pKd ([1]; SPR, Single Cycle Kinetics) | pKd [1, 5] | Structure (SMILES) | NRAS/KRAS (ratio of KD value for NRAS to KD value for KRAS) [2] | HRAS/KRAS (ratio of KD value for HRAS to KD value for KRAS) [3] | also measured
10 | – | 10.12 | CCCC[C@H]1C(=O)N[C@@H]([C@@H](C)CC)C(=O)N(C)CC(=O)N(C)[C@H]2C/C=C\CCN(C2=O)[C@@H](Cc2ccc(C)cc2)C(=O)N(C)CC(=O)N[C@@H](CCc2cc(F)c(C(F)(F)F)c(F)c2)C(=O)N2C[C@H](OCC)C[C@H]2C(=O)NC2(CCC2)C(=O)N(C)[C@@H](C2CCCC2)C(=O)N(C)[C@H](C(=O)N(C)C)CC(=O)N1C [PP2798] | – | – | NRAS/KRAS (ratio of KD value with respect to GDP-bound NRAS wild-type protein to KD value with respect to KRAS) ([2]; SPR KD ratio NRAS/KRAS, class symbols): A (a compound having 10 or more and less than 20 is denoted as A); HRAS/KRAS (ratio of KD value with respect to GDP-bound HRAS wild-type protein to KD value with respect to KRAS) ([3]; SPR KD ratio HRAS/KRAS, class symbols): A (a compound having 10 or more and less than 20 is denoted as A)
11 | 9.70 | – | CCC[C@@H]1C[C@H]2C(=O)NC3(CCC3)C(=O)N(C)[C@@H](C3CCCC3)C(=O)N(C)[C@H](C(=O)N(C)C)CC(=O)N(C)[C@@H](CCC)C(=O)N[C@@H]([C@@H](C)CC)C(=O)N(C)CC(=O)N(C)[C@H]3C/C=C\CCN(C3=O)[C@@H](Cc3ccc(C)cc3)C(=O)N(C)CC(=O)N[C@@H](CCc3ccc(C(F)(F)F)c(Cl)c3)C(=O)N2C1 [PP2238] | A (a compound having 10 or more and less than 20 is denoted as A) | A (a compound having 10 or more and less than 20 is denoted as A) | –
12 | 9.89 | – | CCCOC[C@H]1C(=O)N[C@@H]([C@@H](C)CC)C(=O)N2CCC[C@H]2C(=O)N(C)[C@H]2C/C=C\CCN(C2=O)[C@@H](Cc2ccc(C)cc2)C(=O)N(C)CC(=O)N[C@@H](CCc2ccc(C(F)(F)F)c(OC)c2)C(=O)N2C[C@H](OCC)C[C@H]2C(=O)N(C)C2(CCC2)C(=O)N(C)[C@@H](C2CCCC2)C(=O)N(C)[C@H](C(=O)N(C)C)CC(=O)N1C [PP2334] | A (a compound having 10 or more and less than 20 is denoted as A) | B (a compound having 3 or more and less than 10 is denoted as B) | –
